The values below are quoted from earlier work in patent US20220323409A1, “MODIFIED RELEASE FORMULATIONS AND USES THEREOF” (SUNOVION PHARMACEUTICALS INC., priority 2019, published 2022).

For data set [1] the following is noted: 400-800 mg/day dosage range, product label.
For data set [2] the following is noted: Taubel et al. 2017.

As for `CCN1CCCC1CNC(=O)c1cc(S(=O)(=O)CC)c(N)cc1OC` (racemic) [Racemic (50:50), 4-amino-N-[(1-ethylpyrrolidin-2-yl)methyl]-5-ethylsulfonyl-2-methoxy-benzamide], the “frequency of movement related adverse events (tremor, rigidity, hypokinesia, hypersalivation, akathisia, dyskinesia)” value in data set [1] was “very common”. Also, in data set [2], the “QT interval prolongation versus plasma concentration” value is “substantially linear increase of prolongation with plasma concentration”.
